Reference: US7101878B1 (Agouron Pharmaceuticals, Inc., priority 1998, dated 2006)
Read-outs that look alike come from different tables or passages of the source.

Molecular target: T1, human GnRH receptor (Homo sapiens, UniProt P30968)
T1 construct: expressed in transfected cells; host or cells: HEK 293 (hGnRH-R/293, from Dr. Stuart Sealfon)
T1 sequence (P30968 1-328): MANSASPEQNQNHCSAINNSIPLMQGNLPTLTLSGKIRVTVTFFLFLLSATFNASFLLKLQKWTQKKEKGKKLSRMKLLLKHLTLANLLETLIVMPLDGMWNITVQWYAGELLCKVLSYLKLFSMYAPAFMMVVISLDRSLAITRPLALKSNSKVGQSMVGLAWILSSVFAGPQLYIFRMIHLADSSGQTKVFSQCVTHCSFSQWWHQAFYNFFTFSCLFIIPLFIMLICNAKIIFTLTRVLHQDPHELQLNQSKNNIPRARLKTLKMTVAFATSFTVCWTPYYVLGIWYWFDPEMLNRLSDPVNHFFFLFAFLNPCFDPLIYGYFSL
Experiment: Radioligand binding, 125I-GnRH-A displacement, membranes of HEK 293 cells with human GnRH receptor
Settings: for IC50: read-out: hGnRH IC50; for remaining activity at 1 µM / remaining activity at 10 µM: substrate remaining, closer to zero = closer to 100% inhibition; for remaining activity at 1 µM: 1 uM compound, read-out: S%R 1 uM hGnRHR; for remaining activity at 10 µM: 10 uM compound, read-out: S%R 10 uM hGnRHR
Outline: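 After filtration and PBS washes, bound radioactivity was counted by scintillation and IC50 derived. Identical conditions applied for non-human receptors.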

[1] = 1 uM, read-out: % Inhib. @ 1 uM hGnRH
[2] = 1 h, repeat of % Inhib. at 1 uM, read-out: Repeats @ 1 uM hGnRH

| inhibition at 1 µM [1] [%] | inhibition at 1 µM [2] [%] | SMILES | other results |
| --- | --- | --- | --- |
| – | – | Cc1cc2c(cc1Cc1ccc(C(=O)NCCCCCCNC(=O)c3ccc(Cc4cc5c(cc4C)C(C)(C)CCC5(C)C)o3)o1)C(C)(C)CCC2(C)C [Compound 28] | IC50: > 10 µM |
| -1 | -3 | Cc1cc2c(cc1Cc1ccc(C(=O)N3CCN(c4cccc(O)c4)CC3)o1)C(C)(C)CCC2(C)C | – |
| – | – | COc1cc(OC)c(Cc2ccc(C(=O)Nc3c(OC)cc(OC)cc3OC)o2)c(OC)c1 [Compound 219] | IC50: 0.875 µM |
| 19 | 29 | Cc1cc2c(cc1Cc1ccc(C(=O)NCCc3ccc(O)cc3)o1)C(C)(C)CCC2(C)C | – |
| 55 | 61 | COCCNC(=O)c1ccc(Cc2cc3c(cc2C)C(C)(C)CCC3(C)C)o1 [drawing 1155] | – |
| 51 | 54 | Cc1cc2c(cc1Cc1ccc(C(=O)NCc3ccccc3Sc3ccccc3CO)o1)C(C)(C)CCC2(C)C | – |
| 53 | 58 | Cc1cc2c(cc1Cc1ccc(C(=O)NC(C)c3ccccc3)o1)C(C)(C)CCC2(C)C (stereo not drawn) [drawing 1138] | – |
| – | – | Cc1cc2c(cc1Cc1ccc(C(=O)NCc3cccc(C)c3C)o1)C(C)(C)CCC2(C)C [Compound 441] | remaining activity at 1 µM (1 h): 17% |
| -12 | 1 | Cc1cc2c(cc1Cc1ccc(C(=O)N3CCN(c4ccc(C(F)(F)F)cc4)CC3)o1)C(C)(C)CCC2(C)C | – |
| 15 | 16 | CCOC(=O)N1CCC(NC(=O)c2ccc(Cc3cc4c(cc3C)C(C)(C)CCC4(C)C)o2)CC1 | – |
| – | – | Cc1cc2c(cc1Cc1ccc(C(=O)Nc3ccc(CCO)cc3)o1)C(C)(C)CCC2(C)C [Compound 323] | remaining activity at 10 µM (1 h): 1% |
| – | – | COc1ccc(NC(=O)c2ccc(Cc3cc4c(cc3C)C(C)(C)CCC4(C)C)o2)cn1 [Compound 325] | remaining activity at 10 µM (1 h): 3% |
| 49 | 50 | COc1cccc(CCNC(=O)c2ccc(Cc3cc4c(cc3C)C(C)(C)CCC4(C)C)o2)c1 [drawing 994] | – |
| -14 | -6 | Cc1cc2c(cc1Cc1ccc(C(=O)NCc3ccc(C(C)(C)C)cc3)o1)C(C)(C)CCC2(C)C [drawing 1140] | – |
| 19 | 25 | Cc1cc2c(cc1Cc1ccc(C(=O)N[C@H](C)[C@@H](O)c3ccccc3)o1)C(C)(C)CCC2(C)C | – |
| – | – | COc1cc(NC(=O)c2ccc(Cc3cc4c(cc3C)C(C)(C)CCC4(C)C)o2)cc(OC)c1 [Compound 179] | IC50: 0.19 µM |
| 59 | 66 | CC(=O)C1CCN(C(=O)c2ccc(Cc3cc4c(cc3C)C(C)(C)CCC4(C)C)o2)CC1 | – |
| – | – | Cc1cc2c(cc1Cc1ccc(C(=O)Nc3ccc(N4CCOCC4)cc3)o1)C(C)(C)CCC2(C)C [Compound 30] | IC50: 1.35 µM |
| -4 | 11 | Cc1cc2c(cc1Cc1ccc(C(=O)N3CCN(c4ccncc4)CC3)o1)C(C)(C)CCC2(C)C | – |
| – | – | Cc1cc2c(cc1Cc1ccc(C(=O)NCc3cccc(CNc4nccc(C(F)(F)F)n4)c3)o1)C(C)(C)CCC2(C)C [Compound 143] | IC50: 1.87 µM |
| – | – | Cc1cc(C)cc(NC(=O)c2ccc(Cc3cc4c(cc3C)C(C)(C)CCC4(C)C)o2)c1 [Compound 236] | IC50: 0.903 µM |
| 12 | 8 | CCN(CCc1ccccn1)C(=O)c1ccc(Cc2cc3c(cc2C)C(C)(C)CCC3(C)C)o1 | – |
| 18 | 9 | Cc1cc2c(cc1Cc1ccc(C(=O)NCC(F)(F)F)o1)C(C)(C)CCC2(C)C [drawing 1018] | – |
| – | – | Cc1cc2c(cc1Cc1ccc(C(=O)Nc3ccc(O)c([N+](=O)[O-])c3)o1)C(C)(C)CCC2(C)C [Compound 371] | remaining activity at 10 µM (1 h): 55% |
| – | – | Cc1cc2c(cc1Cc1ccc(C(=O)Nc3ccc(S(=O)(=O)Nc4nccs4)cc3)o1)C(C)(C)CCC2(C)C [Compound 29] | IC50: 1.42 µM |

| inhibition at 1 µM [1] [%] | inhibition at 1 µM [2] [%] | SMILES | other results |
| --- | --- | --- | --- |
| – | – | COc1cc(C#N)c(NC(=O)c2ccc(Cc3cc4c(cc3C)C(C)(C)CCC4(C)C)o2)cc1OC [Compound 343] | remaining activity at 10 µM (1 h): 33% |
| -7 | 9 | CCCCN(Cc1ccccc1)C(=O)c1ccc(Cc2cc3c(cc2C)C(C)(C)CCC3(C)C)o1 | – |
| 82 | 85 | Cc1cc2c(cc1Cc1ccc(C(=O)NCc3cccs3)o1)C(C)(C)CCC2(C)C [drawing 1099] | – |
| – | – | Cc1cc2c(cc1Cc1ccc(C(=O)Nc3ccccc3CCO)o1)C(C)(C)CCC2(C)C [Compound 327] | remaining activity at 10 µM (1 h): 0% |
| – | – | Cc1cnc(NC(=O)c2ccc(Cc3cc4c(cc3C)C(C)(C)CCC4(C)C)o2)s1 [Compound 331] | remaining activity at 10 µM (1 h): 49% |
| – | – | Cc1cc2c(cc1Cc1ccc(C(=O)NCCNc3nccc(NCC4CCCO4)n3)o1)C(C)(C)CCC2(C)C (stereo not drawn) [Compound 63] | IC50: 2.5 µM |
| 69 | 75 | COc1ccc(CNC(=O)c2ccc(Cc3cc4c(cc3C)C(C)(C)CCC4(C)C)o2)cc1OC [drawing 1095] | – |
| – | – | Cc1cnc(CNC(=O)c2ccc(Cc3ccccc3)o2)cn1 [Compound 45] | IC50: > 10 µM |
| – | – | Cc1cc2c(cc1Cc1ccc(C(=O)NCc3ccccc3Oc3ccccc3CO)o1)C(C)(C)CCC2(C)C [Compound 421] | remaining activity at 1 µM (1 h): 48% |
| – | – | COc1cc(OC)c(NC(=O)c2ccc(Cc3cc(OC)cc(OC)c3OC)o2)c(OC)c1 [Compound 208] | IC50: 8.62 µM |
| 89 | 92 | COc1ccc(CNC(=O)c2ccc(Cc3cc4c(cc3C)C(C)(C)CCC4(C)C)o2)cc1 [drawing 1098] | – |
| – | – | Cc1cc2c(cc1Cc1ccc(C(=O)Nc3nc[nH]n3)o1)C(C)(C)CCC2(C)C [Compound 324] | remaining activity at 10 µM (1 h): 27% |
| – | – | Cc1cc2c(cc1Cc1ccc(C(=O)Nc3ccc4c(=O)[nH][nH]c(=O)c4c3)o1)C(C)(C)CCC2(C)C [Compound 377] | remaining activity at 10 µM (1 h): 39% |
| – | – | Cc1cc2c(cc1Cc1ccc(C(=O)NCc3cccc4ccccc34)o1)C(C)(C)CCC2(C)C [Compound 422] | remaining activity at 1 µM (1 h): 34% |
| – | – | Cc1cc2c(cc1Cc1ccc(C(=O)Nc3ccc(O)cc3)o1)C(C)(C)CCC2(C)C [Compound 340] | remaining activity at 10 µM (1 h): 28% |
| 44 | 48 | COc1cc(CCNC(=O)c2ccc(Cc3cc4c(cc3C)C(C)(C)CCC4(C)C)o2)cc(OC)c1 [drawing 1148] | – |
| -4 | -7 | Cc1cc2c(cc1Cc1ccc(C(=O)NCCN(C)C)o1)C(C)(C)CCC2(C)C | – |
| 75 | 77 | Cc1cc2c(cc1Cc1ccc(C(=O)NCc3cccc([N+](=O)[O-])c3)o1)C(C)(C)CCC2(C)C [drawing 1231] | – |
| – | – | Cc1cc2c(cc1Cc1ccc(C(=O)NCCOc3ccccc3)o1)C(C)(C)CCC2(C)C [Compound 438] | remaining activity at 1 µM (1 h): 7% |
| 67 | 69 | Cc1cc2c(cc1Cc1ccc(C(=O)NCCOCCO)o1)C(C)(C)CCC2(C)C [drawing 1068] | – |
| – | – | COc1cc(CCNC(=O)c2ccc(Cc3cc4c(cc3C)C(C)(C)CCC4(C)C)o2)cc(OC)c1 [Compound 430] | remaining activity at 1 µM (1 h): 55% |
| – | – | Cc1ccc2nc(C)n(NC(=O)c3ccc(Cc4cc5c(cc4C)C(C)(C)CCC5(C)C)o3)c(=O)c2c1 | inhibition at 10 µM (repeat, read-out: Repeats @ 10 uM hGnRH (% inhib.)): -4%; inhibition at 10 µM (read-out: % inhib. @ 10 uM hGnRH): -4% |
| – | – | Cc1cc2c(cc1Cc1ccc(C(=O)NCc3ccccc3Cl)o1)C(C)(C)CCC2(C)C [Compound 417] | remaining activity at 1 µM (1 h): 20% |
| – | – | Cc1cc2c(cc1Cc1ccc(C(=O)NCc3ccccc3)o1)C(C)(C)CCC2(C)C [Compound 402] | remaining activity at 1 µM (1 h): 18% |
